Values quoted from earlier work as cited in patent US20220064092A1, “METHYLATION PROCESS” (priority 2019, published 2022).

Settings: qualitative statement

Oc1ccc(/C=C/c2cc(O)cc(O)c2)cc1 [resveratrol, 3,5,4′-trihydroxy-trans-stilbene]
half-life: very limited half-life
